In publication PMC12394895, “Detection and characterisation of ligand-induced conformational changes in acetylcholine binding proteins using biosensors and X-ray crystallography” (RSC Chemical Biology, 2025):
pKd: −log10 of the molar value.

What was measured:
Ls-AChBP [1] = target: T1, Ls-AChBP (Lymnaea stagnalis, UniProt P58154); assay: GCI biosensor, steady state; type: binding
T1 construct: soluble homopentamer, AChBP pentamer 125 kDa; amine-coupled for SAW and GCI

Ls-AChBP [2] = target: T1, Ls-AChBP; assay: SAW biosensor, phase signal; type: binding; settings: pH 7.4, 25 °C, 5% DMSO; immobilised protein; unreliable (very rough approximation, steady state not always reached)
Source text: SAW biosensor, phase signal on Ls-AChBP

T1 sequence (P58154 20-229): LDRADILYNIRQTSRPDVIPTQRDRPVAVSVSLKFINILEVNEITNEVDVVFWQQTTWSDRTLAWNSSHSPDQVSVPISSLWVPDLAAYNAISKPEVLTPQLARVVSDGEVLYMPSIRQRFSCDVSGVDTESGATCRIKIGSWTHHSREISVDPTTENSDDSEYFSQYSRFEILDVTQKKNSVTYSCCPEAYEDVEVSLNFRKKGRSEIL

| Compound | pKd (Ls-AChBP [1]) | Phase KD (Ls-AChBP [2]) |
| --- | --- | --- |
| CCn1ccnc1-c1cccc(-c2ccccn2)n1 [VUF24234] | 5.30 |  |
| CC(=O)OCC[N+](C)(C)C [acetylcholine] |  | 0.61 µM |
| CN1CCC[C@H]1c1cccnc1 [nicotine] |  | 0.035 µM |
| VUF6105 |  | 12 µM |
| Cn1ccnc1/C=C/c1ccc(O)c(O)c1 [VUF22430] | 5.89 |  |
